Molecules are shown by their SMILES. Structures can show the parent of a compound that is named as a salt. Where two headings read alike, the source gives them in different places.

This test concerns Acinetobacter baumannii ATCC 17961. In words: Antimicrobial susceptibility testing: 90% growth inhibitory concentration (IC90) determination. The format is cell-based. A digest of the protocol:
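Broth microdilution in Iso-Sensitest medium, twofold series (e.g. 50 to 0.097 μM final), ~5×10^5 CFU/ml inoculum, 35±2 °C. OD600 read every 20 min over 16 h. IC90 derived from growth inhibition during logarithmic phase.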

Setting [1] is: ATCC17961, Acinetobacter baumannii ATCC 17961, Iso-Sensitest broth, read-out: ATCC 17961 IC90.

For the molecule `Cn1c(-c2cn(CC3CC3)nc2C(F)(F)F)cnc1C(=O)Nc1ccc(C(=O)N2CCN(C(=O)C3CNC3)CC2)c(Cl)c1` [Example 208, N-(4-(4-(azetidine-3-carbonyl)piperazine-1-carbonyl)-3-chlorophenyl)-5-(1-(cyclopropylmethyl)-3-(trifluoromethyl)-1H-pyrazol-4-yl)-1-methyl-1H-imidazole-2-carboxamide], under setting [1], the IC90 was 226 nM.

Consider `Cn1c(-c2cn(CC3CC3)nc2C(F)(F)F)cnc1C(=O)Nc1ccc(C(=O)N2CCN(C(=O)CN)CC2)c(Cl)c1` [Example 209, N-(3-chloro-4-(4-glycylpiperazine-1-carbonyl)phenyl)-5-(1-(cyclopropylmethyl)-3-(trifluoromethyl)-1H-pyrazol-4-yl)-1-methyl-1H-imidazole-2-carboxamide], for which, under setting [1], the IC90 was 230 nM. For `Cn1c(-c2cn(C3CC4(CC4)C3)nc2C(F)(F)F)cnc1C(=O)Nc1ccc(C(=O)N2CCN(C(=O)N[C@H]3C[C@@H](N)C3)CC2)c(Cl)c1` [Example 210, rac-N-((1s,3s)-3-aminocyclobutyl)-4-(2-chloro-4-(1-methyl-5-(1-(spiro[2.3]hexan-5-yl)-3-(trifluoromethyl)-1H-pyrazol-4-yl)-1H-imidazole-2-carboxamido)benzoyl)piperazine-1-carboxamide hydrochloride], the IC90 (Acinetobacter baumannii, ATCC17961, read-out: ATCC 17961 IC90, Acinetobacter baumannii ATCC 17961, Iso-Sensitest broth) is 231 nM. With `Cn1c(-c2cn(CC(F)F)nc2C(F)(F)F)cnc1C(=O)Nc1ccc(S(=O)(=O)N2CCN(C(=O)[C@H]3CC[C@@H](N)C3)CC2)c(Cl)c1` [Example 211, N-(4-((4-((1S,3R)-3-aminocyclopentane-1-carbonyl)piperazin-1-yl)sulfonyl)-3-chlorophenyl)-5-(1-(2,2-difluoroethyl)-3-(trifluoromethyl)-1H-pyrazol-4-yl)-1-methyl-1H-imidazole-2-carboxamide hydrochloride], the IC90 under setting [1] was 231 nM. On the same count and under the same terms, the result for `Cn1c(-c2cn(C3CC3(F)F)nc2C(F)(F)F)cnc1C(=O)Nc1ccc(C(=O)N2CC3C(N)C3C2)c(Cl)c1` (stereo not shown) [Example 212, N-(4-(6-amino-3-azabicyclo[3.1.0]hexane-3-carbonyl)-3-chlorophenyl)-5-(1-(2,2-difluorocyclopropyl)-3-(trifluoromethyl)-1H-pyrazol-4-yl)-1-methyl-1H-imidazole-2-carboxamide formate] reads 235 nM. With `Cn1c(-c2cn(CC(F)F)nc2C(F)(F)F)cnc1C(=O)Nc1ccc(C(=O)N2CCN(C(=O)[C@H]3[C@@H]4CNC[C@@H]43)CC2)c(F)c1` [Example 213, rac-N-(4-(4-((1R,5S,6r)-3-azabicyclo[3.1.0]hexane-6-carbonyl)piperazine-1-carbonyl)-3-fluorophenyl)-5-(1-(2,2-difluoroethyl)-3-(trifluoromethyl)-1H-pyrazol-4-yl)-1-methyl-1H-imidazole-2-carboxamide], the IC90 under setting [1] is 240 nM.

Consider `Cn1c(-c2cn(C3CC3)nc2C(F)(F)F)cnc1C(=O)Nc1ccc(C(=O)N2CCN(C(=O)NCC3CNC3)CC2)c(Cl)c1` [Example 214, N-(azetidin-3-ylmethyl)-4-(2-chloro-4-(5-(1-cyclopropyl-3-(trifluoromethyl)-1H-pyrazol-4-yl)-1-methyl-1H-imidazole-2-carboxamido)benzoyl)piperazine-1-carboxamide formate], for which, under setting [1], the IC90 came to 241 nM. In the case of `C=CCn1cc(-c2cnc(C(=O)Nc3ccc(C(=O)NC4C5CN(C(=O)C6CCNCC6)CC54)c(Cl)c3)n2C)c(C(F)(F)F)n1` (stereo not shown) [Example 215, 5-(1-allyl-3-(trifluoromethyl)-1H-pyrazol-4-yl)-N-(3-chloro-4-((3-(piperidine-4-carbonyl)-3-azabicyclo[3.1.0]hexan-6-yl)carbamoyl)phenyl)-1-methyl-1H-imidazole-2-carboxamide formate], the IC90 under setting [1] was 243 nM. As to `Cn1c(-c2cn(C3CC3)nc2C(F)(F)F)cnc1C(=O)Nc1ccc(C(=O)N2CCN(C(=O)N3CC(N)C3)CC2)c(Cl)c1` [Example 216, N-(4-(4-(3-aminoazetidine-1-carbonyl)piperazine-1-carbonyl)-3-chlorophenyl)-5-(1-cyclopropyl-3-(trifluoromethyl)-1H-pyrazol-4-yl)-1-methyl-1H-imidazole-2-carboxamide formate], the IC90 under setting [1] is 243 nM. The same measure, in the same setting: the same measure for `Cn1c(-c2cn(C3CC3)nc2C(F)(F)F)cnc1C(=O)Nc1ccc(C(=O)N2CC[C@@H](CN)C2)c(Cl)c1` [Example 217, (S)-N-(4-(3-(aminomethyl)pyrrolidine-1-carbonyl)-3-chlorophenyl)-5-(1-cyclopropyl-3-(trifluoromethyl)-1H-pyrazol-4-yl)-1-methyl-1H-imidazole-2-carboxamide hydrochloride]: 244 nM; for `Cn1c(-c2cn(CC3CC3)nc2C(F)(F)F)cnc1C(=O)Nc1ccc(C(=O)N2CCN(C(=O)N[C@H]3C[C@@H](N)C3)CC2)c(F)c1` [Example 218, N-((1s,3s)-3-aminocyclobutyl)-4-(4-(5-(1-(cyclopropylmethyl)-3-(trifluoromethyl)-1H-pyrazol-4-yl)-1-methyl-1H-imidazole-2-carboxamido)-2-fluorobenzoyl)piperazine-1-carboxamide; hydrochloride]: 244 nM; for `CCc1cc(NC(=O)c2ncc(-c3cn(CC(F)F)nc3C(F)(F)F)n2C)ccc1C(=O)NCCCCCNCC(=O)OC(C)(C)C` [Example 219, tert-butyl (5-(4-(5-(1-(2,2-difluoroethyl)-3-(trifluoromethyl)-1H-pyrazol-4-yl)-1-methyl-1H-imidazole-2-carboxamido)-2-ethylbenzamido)pentyl)glycinate]: 245 nM. As for `Cn1c(-c2cn(CC3CC3(F)F)nc2C(F)(F)F)cnc1C(=O)Nc1ccc(C(=O)NC2C3CN(C(=O)C4CCNCC4)CC32)c(Cl)c1` (stereo not shown) [Example 220, N-(3-chloro-4-((3-(piperidine-4-carbonyl)-3-azabicyclo[3.1.0]hexan-6-yl)carbamoyl)phenyl)-5-(1-((2,2-difluorocyclopropyl)methyl)-3-(trifluoromethyl)-1H-pyrazol-4-yl)-1-methyl-1H-imidazole-2-carboxamide formate], the IC90 under setting [1] stood at 245 nM. On to `Cn1c(-c2cn(C3CC3)nc2C(F)(F)F)cnc1C(=O)Nc1ccc(C(=O)NCCCCCN)c(Cl)c1` [Example 221, N-(4-((5-aminopentyl)carbamoyl)-3-chlorophenyl)-5-(1-cyclopropyl-3-(trifluoromethyl)-1H-pyrazol-4-yl)-1-methyl-1H-imidazole-2-carboxamide hydrochloride], for which the IC90 under setting [1] worked out at 246 nM. For the molecule `C#CCn1cc(-c2cnc(C(=O)Nc3ccc(C(=O)NCCOCC(C)(C)N)c(CC)c3)n2C)c(C(F)(F)F)n1` [Example 222, N-[4-[2-(2-amino-2-methyl-propoxy)ethylcarbamoyl]-3-ethyl-phenyl]-1-methyl-5-[1-prop-2-ynyl-3-(trifluoromethyl)pyrazol-4-yl]imidazole-2-carboxamide; formic acid], the IC90 under setting [1] came to 250 nM. As for `Cn1c(-c2cn(C3CC3)nc2C(F)(F)F)cnc1C(=O)Nc1ccc(C(=O)N2CCN(C(=O)[C@@H]3CCCNC3)CC2)c(Cl)c1` [Example 223, (R)-N-(3-chloro-4-(4-(piperidine-3-carbonyl)piperazine-1-carbonyl)phenyl)-5-(1-cyclopropyl-3-(trifluoromethyl)-1H-pyrazol-4-yl)-1-methyl-1H-imidazole-2-carboxamide hydrochloride], the IC90 under setting [1] was determined as 252 nM.

As to `Cn1c(-c2cn(C3CC3)nc2C(F)(F)F)cnc1C(=O)Nc1ccc(C(=O)N2CCN(C(=O)C3CNC3)CC2)c(Cl)c1` [Example 224, N-(4-(4-(azetidine-3-carbonyl)piperazine-1-carbonyl)-3-chlorophenyl)-5-(1-cyclopropyl-3-(trifluoromethyl)-1H-pyrazol-4-yl)-1-methyl-1H-imidazole-2-carboxamide hydrochloride], under setting [1], the IC90 was 256 nM. Still for that read-out and setting: the result for `Cn1c(-c2cn(C3CC3)nc2C(F)(F)F)cnc1C(=O)Nc1ccc(C(=O)N2CCN(C(=O)N[C@H]3C[C@H](N)C3)CC2)c(Cl)c1` [Example 225, N-(3-aminocyclobutyl)-4-[2-chloro-4-[[5-[1-cyclopropyl-3-(trifluoromethyl)pyrazol-4-yl]-1-methylimidazole-2-carbonyl]amino]benzoyl]pipera-zine-1-carboxamide;formic acid] reads 256 nM; that for `Cn1c(-c2cn(CC3CC3)nc2C(F)(F)F)cnc1C(=O)Nc1ccc(C(=O)NC2C3CN(C(=O)C4CCNCC4)CC32)c(Cl)c1` (stereo not shown) [Example 227, N-(3-chloro-4-((3-(piperidine-4-carbonyl)-3-azabicyclo[3.1.0]hexan-6-yl)carbamoyl)phenyl)-5-(1-(cyclopropylmethyl)-3-(trifluoromethyl)-1H-pyrazol-4-yl)-1-methyl-1H-imidazole-2-carboxamide formate], 262 nM; that for `Cn1c(-c2cn(C3CC3)nc2C(F)(F)F)cnc1C(=O)Nc1ccc(C(=O)N2CCN(CCN)CC2)c(Cl)c1` [Example 228, N-(4-(4-(2-aminoethyl)piperazine-1-carbonyl)-3-chlorophenyl)-5-(1-cyclopropyl-3-(trifluoromethyl)-1H-pyrazol-4-yl)-1-methyl-1H-imidazole-2-carboxamide formate], 263 nM. Still for that read-out and setting: the result for `Cn1c(-c2cn(C3CC3)nc2C(F)(F)F)cnc1C(=O)Nc1ccc(C(=O)N2CCN(C(=O)[C@@H]3CCNC3)CC2)c(Cl)c1` [Example 229, (R)-N-(3-chloro-4-(4-(pyrrolidine-3-carbonyl)piperazine-1-carbonyl)phenyl)-5-(1-cyclopropyl-3-(trifluoromethyl)-1H-pyrazol-4-yl)-1-methyl-1H-imidazole-2-carboxamide hydrochloride] reads 263 nM; that for `Cn1c(-c2cn(C3CC3)nc2C(F)(F)F)cnc1C(=O)Nc1ccc(C(=O)N2CCN(C(=O)[C@@H]3CC[C@@H](N)C3)CC2)c(Cl)c1` [Example 230, N-(4-(4-((1R,3R)-3-aminocyclopentane-1-carbonyl)piperazine-1-carbonyl)-3-chlorophenyl)-5-(1-cyclopropyl-3-(trifluoromethyl)-1H-pyrazol-4-yl)-1-methyl-1H-imidazole-2-carboxamide hydrochloride], 266 nM.

Source of the values: patent US11390604B2 (Hoffmann-La Roche Inc., priority 2019, dated 2022).
